# Patent US11266578B2, “Composition, kit and method for coloring keratinous fibers” (Henkel AG & Co. KGaA, priority 2017, dated 2022)
# Assay: Water-solubility at 1 wt. % in distilled water
# Assay type: physicochemical
# Details: 1 wt. % in ~pH7 distilled water at RT; clear = soluble, turbid = insoluble
# Procedure: Water-solubility of a chemical compound, and, for instance, water insolubility of condensation-curable amino-silicone pre-polymers, can be provided by the supplier. It can also be confirmed or determined as follows. Water-solubility was assessed by mixing 1 wt. % of the material in near neutral (˜pH7) distilled water at RT, followed by a brief vortex for homogeneity. A clear solution indicated a water-soluble material, whereas turbidity indicated an at least partly water-insoluble material.
row,SMILES,water-solubility
1,CCO[Si](CCCNCCN)(OCC)OCC [N-(2-aminoethyl)-3-aminopropyltriethoxysilane],water soluble
2,"CCO[Si](CCCNCCC[Si](OCC)(OCC)OCC)(OCC)OCC [SIB1824.5, bis(triethoxy-silylpropyl) amine]",insoluble
3,"CCO[Si](CCCN1CCC[Si]1(OCC)OCC)(OCC)OCC [SIT8187.2, 1-(3-(triethoxysilyl)propyl)-2,2-diethoxi-1-aza-2-silacyclopentane]",insoluble
4,"CCO[Si](CCCN)(OCC)OCC [Dynasylan® AMEO, 3-aminopropyltriethoxysilane]",soluble
5,"C[Si](C)(CCCN)O[Si](C)(C)CCCN [GP-967, Bis 3-aminopropyl tetramethyldisiloxane]",turbid dispersion
6,CCO[Si](C)(C)CCCN [3-aminopropyldimethylethoxysilane],water soluble

# Same assay, conditions: Table 17
row,SMILES,solubility (in Material Type)
1,CCO[Si](CCCNCCN)(OCC)OCC [N-(2-aminoethyl)-3-aminopropyltriethoxysilane],silane (soluble)
2,"C[Si]1(C)O[Si](C)(C)O[Si](C)(C)O[Si](C)(C)O[Si](C)(C)O1 [Decamethylcyclopenta-siloxane, Decamethylcyclopentasiloxane]",(soluble)
3,CCO[Si](C)(CCCN)OCC [3-Aminopropylmethyl-diethoxysilane],silane (soluble)
4,CCO[Si](C)(CCCNCCC[Si](C)(OCC)OCC)OCC [Bis[methyldiethoxysilyl-propyl] amine],silane (non soluble)
